Test results: US20120255051A1, “HERBICIDE TOLERANT PLANTS” (priority 2009, published 2012)

System: Brassica plants comprising mutant AHAS alleles
Test: Greenhouse post-emergence spraying (10 g a.i./ha): vigor scores
Type: in vivo, Brassica napus
Settings: for vigor score Av, post-emergence (1, 2 and 3 weeks after treatment): 10 g a.i./ha
Description: In another experiment, the effect of combining AHAS full knockouts with AHAS missense herbicide tolerant alleles on tolerance to thiencarbazone-methyl pre-planting application and thiencarbazone-methyl post-emergence spraying was tested in the greenhouse. To this end, the Brassica plants identified in Example 1 and 2 were backcrossed two times with an elite parent line, and subsequently selfed twice to obtain homozygous plants (BC2S2). Treatment pre-planting was carried out on the soil just after sowing with a dose of 20 g a.i./ha of thiencarbazone methyl. For assessment of vigor scores, plants were evaluated on a scale of 1 to 9, where 1=dead, 3=poor, 6=some aberrant phenotype and 9=vigorous. The vigor scores are an average of the scores taken at 2, 3 and 4 weeks after treatment. Treatment post-emergence at the first leaf stage was carried out with a dose of 10 g a.i./ha of thiencarbazone-methyl. The vigor scores are an average of the scores taken 1, 2 and 3 weeks after the treatment. The average values (Av) and standard deviations (SD) of the vigor scores are represented in Table 6.

## COC(=O)c1csc(C)c1S(=O)(=O)NC(=O)n1nc(OC)n(C)c1=O [thiencarbazone-methyl, methyl 4-[(4,5-dihydro-3-methoxy-4-methyl-5-oxo-1H-1,2,4-triazol-1-yl)carbonylsulfamoyl]-5-methylthiophene-3-carboxylate]
AHAS1 +/+, AHAS3 +/+ (HETO108+HETO104 series)
  vigor score Av, post-emergence (1, 2 and 3 weeks after treatment): 1.7
AHAS1 +/+, AHAS3 +/+ (HETO108+HETO111 series)
  vigor score Av, post-emergence (1, 2 and 3 weeks after treatment): 1.7
AHAS1 +/+, AHAS3 +/+ (HETO112+HETO111 series)
  vigor score Av, post-emergence (1, 2 and 3 weeks after treatment): 1.7
AHAS1 +/+, AHAS3 HETO104/HETO104
  vigor score Av, post-emergence (1, 2 and 3 weeks after treatment): 1.8
AHAS1 +/+, AHAS3 HETO111/HETO111 (HETO108+HETO111 series)
  vigor score Av, post-emergence (1, 2 and 3 weeks after treatment): 3.3
AHAS1 +/+, AHAS3 HETO111/HETO111 (HETO112+HETO111 series)
  vigor score Av, post-emergence (1, 2 and 3 weeks after treatment): 3.1
AHAS1 HETO108/HETO108, AHAS3 +/+ (HETO108+HETO104 series)
  vigor score Av, post-emergence (1, 2 and 3 weeks after treatment): 3.4
AHAS1 HETO108/HETO108, AHAS3 +/+ (HETO108+HETO111 series)
  vigor score Av, post-emergence (1, 2 and 3 weeks after treatment): 3.3
AHAS1 HETO108/HETO108, AHAS3 HETO104/HETO104
  vigor score Av, post-emergence (1, 2 and 3 weeks after treatment): 3.8
AHAS1 HETO108/HETO108, AHAS3 HETO111/HETO111
  vigor score Av, post-emergence (1, 2 and 3 weeks after treatment): 4.7
AHAS1 HETO112/HETO112, AHAS3 +/+
  vigor score Av, post-emergence (1, 2 and 3 weeks after treatment): 1.7
AHAS1 HETO112/HETO112, AHAS3 HETO111/HETO111
  vigor score Av, post-emergence (1, 2 and 3 weeks after treatment): 3.6
Elite parent line treated
  vigor score Av, post-emergence (1, 2 and 3 weeks after treatment): 1.8
post-emergence spraying, greenhouse
  thiencarbazone-methyl tolerance of plants homozygous for a missense allele and a full knock-out allele, versus missense allele with other AHAS gene homozygous wild-type: higher
